# Measurements as given in patent US12383497B2, “Ready-to-use phenylephrine formulations and products” (INFORLIFE SA, priority 2023, dated 2025).
# Where a name gives a salt, the structure may show the parent alone.
# Assay: Effect of autoclaving (terminal sterilization) on the product
# Format: physicochemical
# Protocol: Batches of the phenylephrine composition of the present disclosure formulated as in Table 1 were manufactured for the study of the effect of autoclaving on product behavior by autoclaving at a target temperature T=121° C.±1° C. and time at different FOs according to USP <1222>, which is incorporated fully herein by reference.
# The table below show the Critical Quality Attributes of the drug product. The objective of this study was to evaluate the quality of the proposed manufacturing process to determine whether the manufacturing process will endure the desired final product study.
# The table below show the results of the autoclaving study using several batches of the phenylephrine hydrochloride product formulation of the disclosure, containing 0.08 mg/ml of phenylephrine HCL.
smiles,measurement,value
"CNC[C@H](O)c1cccc(O)c1 [phenylephrine, benzene methanol, 3-hydroxy-α [(methyl amino)methyl]-hydrochloride (R)]",effect of terminal sterilization by autoclaving,caused degradation
